Patent US20240083903A1, “ARYL ETHER COMPOUNDS AS TEAD MODULATORS” (Merck Sharp& Dohme LLC, priority 2021, published 2024)

These compounds were tested on TEAD Reporter-MCF7 cell line (assay: YAP/TEAD cellular activity assay: inhibition of TEAD-Luc activity in TEAD Reporter-MCF7 cell line). Conditions: Homo sapiens, MCF7, 24 h, TEAD Reporter-MCF7 cells, 24 hours incubation with compound, luciferase readout.
Assay type: cell-based, human
Method: YAP/TEAD Cellular Activity Assay
Quantitation of Compound Potency on the Inhibition of TEAD-Luc Activity in TEAD Reporter-MCF7 Cell Line.
The TEAD Reporter-MCF7 cell line containing the firefly luciferase gene under the control of TEAD responsive elements stably integrated into the human breast cancer cell line was purchased from BPS Bioscience (Cat #60618). The cells were cultured with complete culture medium ([…], 1 mM sodium pyruvate, 10% fetal bovine serum, 10 ng/mL insulin and 400 ug/mL G418 sulfate) prior to the assay. For the assay, the cells were harvested, resuspended in the complete culture medium without G418, and seeded into white solid bottom 384-well cell culture microplates in 25 uL with 10,000 cells per well. The plates were incubated at 37° C. in a CO2 incubator for 20-24 hours and the compounds were then transferred from Echo LDV plates directly into the 384-well white tissue culture plates with an Echo. The plates were incubated at 37° C. in a CO2 incubator for 24 hours and equal volume of ONE-Glo™ EX Luciferase reagent (Promega, Cat #E8150) was added. After mixing on a shaker at room temperature for 10 minutes, the luciferase activity was measured with an Envision. The percentage inhibition and EC50 values of compounds were calculated with Spotfire.
Required Materials • 1. TEAD reporter-MCF-7 Cells (BPS Bioscience, #60618) • 2. Complete Cell Culture Medium (without selection antibiotics) • EMEM 89% (ATCC, #30-2003) • FBS 10% (Hyclone, #SH30088.03) • 1% Non essential amino acids (Gibco, • 1 mM sodium pyruvate (Gibco, • Pen/Strep, 1% (Gibco, #15140-122) • 10 ng/mL insulin (Sigma, #10516) • 3. Complete Cell Culture Medium (with selection antibiotics) • EMEM 89% (ATCC, #30-2003) • F1% Non essential amino acids (Gibco, • 1 mM sodium pyruvate (Gibco, • BS 10% (Hyclone, #SH30088.03) • 10 ng/mL insulin (Sigma, #10516) • 400 ug/mL G418 sulfate (Agilent, #200049-21) • 4. Miscellaneous tissue culture equipment and reagents. • 5. White solid 384-well tissue culture plate (Greiner, Cat #781080) • 6. One Glo EX luciferase assay system (Promega, #E8150)
The following table tabulates the biological data disclosed for the current invention. The biological data was collected using the methodology described above. For each compound, TEAD-Luc EC50 values are listed in nanomolar (nM) concentration units.

Structure (SMILES) | EC50 [nM]
CNS(=O)(=O)c1ccc(Oc2ccc(C(F)(F)F)cc2)c(-c2cn3ccc(F)cc3n2)c1 [1-32, 3-(7-fluoroimidazo[1,2-a]pyridin-2-yl)-N-methyl-4-[4-(trifluoromethyl)phenoxy]benzene-1-sulfonamide] | 62.4
CNS(=O)(=O)c1ccc(Oc2ccc(C(F)(F)F)cc2)c(-c2ccc3c(c2)OCO3)c1 [2-14, 3-(2H-1,3-benzodioxol-5-yl)-N-methyl-4-[4-(trifluoromethyl)phenoxy]benzene-1-sulfonamide] | 247
CNS(=O)(=O)c1ccc(Oc2ccc(Cl)cc2)c(-c2cnn3c2OCC3)c1 [1-47, 4-(4-chlorophenoxy)-3-(2,3-dihydropyrazolo[5,1-b]oxazol-7-yl)-N-methylbenzenesulfonamide] | 104
CNS(=O)(=O)c1ccc(Oc2ccc(C(F)(F)F)cc2)c(-c2ccc3nc(OC)ccc3c2)c1 [2-29, 3-(2-methoxyquinolin-6-yl)-N-methyl-4-[4-(trifluoromethyl)phenoxy]benzene-1-sulfonamide] | 89.7
CNS(=O)(=O)c1ccc(Oc2ccc(C(F)(F)F)cc2)c(-c2ccc3cccnc3c2)c1 [2-24, N-methyl-3-(quinolin-7-yl)-4-[4-(trifluoromethyl)phenoxy]benzene-1-sulfonamide] | 273
CNS(=O)(=O)c1ccc(Oc2ccc(C(F)(F)F)cc2)c(-c2cc3n(n2)CCC3)c1 [1-2, 3-(5,6-Dihydro-4H-pyrrolo[1,2-b]pyrazol-2-yl)-N-methyl-4-(4-(trifluoromethyl)phenoxy)benzenesulfonamide] | 5.1
CNS(=O)(=O)c1ccc(Oc2ccc(C(F)(F)F)cc2)c(-c2cc3c(cc2F)N(C)C(=O)CC3)c1 [2-23, 3-(7-fluoro-1-methyl-2-oxo-1,2,3,4-tetrahydroquinolin-6-yl)-N-methyl-4-[4-(trifluoromethyl)phenoxy]benzene-1-sulfonamide] | 3640
CNS(=O)(=O)c1ccc(Oc2ccc(C(F)(F)F)cc2)c(-c2ccc3c(c2)CC(=O)N3)c1 [2-4, N-methyl-3-(2-oxo-2,3-dihydro-1H-indol-5-yl)-4-[4-(trifluoromethyl)phenoxy]benzene-1-sulfonamide] | 5480
CNS(=O)(=O)c1ccc(Oc2ccc(C(F)(F)F)cc2)c(-c2cc3n(n2)CCCC3)c1 [1-36, N-methyl-3-(4,5,6,7-tetrahydropyrazolo[1,5-a]pyridin-2-yl)-4-[4-(trifluoromethyl)phenoxy]benzene-1-sulfonamide] | 4.6
CNS(=O)(=O)c1ccc(Oc2ccc(C(F)(F)F)cc2)c(-c2cn3ccccc3n2)c1 [1-27, 3-(imidazo[1,2-a]pyridin-2-yl)-N-methyl-4-[4-(trifluoromethyl)phenoxy]benzene-1-sulfonamide] | 28.4
CNS(=O)(=O)c1ccc(Oc2ccc(C(F)(F)F)cc2)c(-c2cn3c(n2)COCC3)c1 [1-3, 3-(5,6-Dihydro-8H-imidazo[2,1-c] [1,4]oxazin-2-yl)-N-methyl-4-(4-(trifluoromethyl)phenoxy)benzenesulfonamide] | 36.2
CNS(=O)(=O)c1ccc(Oc2ccc(C(F)(F)F)cc2)c(-c2ccc3c(c2)OCC(=O)N3)c1 [2-28, N-methyl-3-(3-oxo-3,4-dihydro-2H-1,4-benzoxazin-7-yl)-4-[4-(trifluoromethyl)phenoxy]benzene-1-sulfonamide] | 5230
CNS(=O)(=O)c1ccc(Oc2ccc(C(F)(F)F)cc2)c(-c2nc3ccccc3s2)c1 [1-28, 3-(1,3-benzothiazol-2-yl)-N-methyl-4-[4-(trifluoromethyl)phenoxy]benzene-1-sulfonamide] | 66.6
CNS(=O)(=O)c1ccc(Oc2ccc(C(F)(F)F)cc2)c(-c2nc3ccccc3o2)c1 [1-29, 3-(1,3-benzoxazol-2-yl)-N-methyl-4-[4-(trifluoromethyl)phenoxy]benzene-1-sulfonamide] | 861
CNS(=O)(=O)c1ccc(Oc2ccc(C(F)(F)F)cc2)c(-c2ncc3cnccn23)c1 [1-7, 3-(imidazo[1,5-a]pyrazin-3-yl)-N-methyl-4-[4-(trifluoromethyl)phenoxy]benzene-1-sulfonamide] | 5350

Second part, the compound after the results:

EC50 [nM] | Structure (SMILES)
15 | CNS(=O)(=O)c1ccc(Oc2ccc(Cl)cc2F)c(-c2cn3c(n2)CCC3)c1 [4-20, 4-(4-chloro-2-fluorophenoxy)-3-(6,7-dihydro-5H-pyrrolo[1,2-a]imidazol-2-yl)-N-methylbenzene-1-sulfonamide]
22.3 | CNS(=O)(=O)c1ccc(Oc2cccc(C(F)(F)F)c2)c(-c2cn3c(n2)CCC3)c1 [4-15, 3-(6,7-dihydro-5H-pyrrolo[1,2-a]imidazol-2-yl)-N-methyl-4-[3-(trifluoromethyl)phenoxy]benzene-1-sulfonamide]
15.2 | CNS(=O)(=O)c1ccc(Oc2ccc(S(F)(F)(F)(F)F)cc2)c(-c2cn3c(n2)CCC3)c1 [4-18, 3-(6,7-dihydro-5H-pyrrolo[1,2-a]imidazol-2-yl)-N-methyl-4-[4-(pentafluoro-lambda~6~-sulfanyl)phenoxy]benzene-1-sulfonamide]
6690 | CNS(=O)(=O)c1ccc(Oc2ccc(C(F)(F)F)cc2)c(-n2cc3c(n2)CN(C)C3)c1 [6-1, N-Methyl-3-(5-methyl-5,6-dihydropyrrolo [3,4-c]pyrazol-2(4H)-yl)-4-(4-(trifluoromethyl)phenoxy)benzenesulfonamide]
15.1 | CCc1ccc(Oc2ccc(S(=O)(=O)NC)cc2-c2cn3c(n2)CCC3)cc1 [4-9, 3-(6,7-dihydro-5H-pyrrolo [1,2-a]imidazol-2-yl)-4-(4-ethylphenoxy)-N-methylbenzene-1-sulfonamide]
21.6 | CCc1cccc(Oc2ccc(S(=O)(=O)NC)cc2-c2cn3c(n2)CCC3)c1 [4-10, 3-(6,7-dihydro-5H-pyrrolo [1,2-a]imidazol-2-yl)-4-(3-ethylphenoxy)-N-methylbenzene-1-sulfonamide]
5.7 | CNS(=O)(=O)c1ccc(Oc2ccc(C(C)(C)C)cc2)c(-c2cn3c(n2)CCC3)c1 [4-3, 4-(4-tert-butylphenoxy)-3-(6,7-dihydro-5H-pyrrolo[1,2-a]imidazol-2-yl)-N-methylbenzene-1-sulfonamide]
45.7 | CNS(=O)(=O)c1ccc(Oc2ccc(OC)cc2)c(-c2cn3c(n2)CCC3)c1 [4-14, 3-(6,7-dihydro-5H-pyrrolo[1,2-a]imidazol-2-yl)-4-(4-methoxyphenoxy)-N-methylbenzene-1-sulfonamide]
618 | CNS(=O)(=O)c1ccc(Oc2ccc(OC(F)(F)F)cc2)c(-c2cnn3c2CCC3)c1 [3-4, 3-(5,6-dihydro-4H-pyrrolo[1,2-b]pyrazol-3-yl)-N-methyl-4-[4-(trifluoromethoxy)phenoxy]benzene-1-sulfonamide]

Same assay, conditions: Homo sapiens; TEAD Reporter-MCF7 cells, 24 hours incubation with compound, luciferase readout

Structure (SMILES) | EC50 [nM]
CNS(=O)(=O)c1ccc(Oc2ccc(Cl)cc2)c(-c2cc3n(n2)CCC3)c1 [8-1, 4-(4-Chlorophenoxy)-3-(5,6-dihydro-4H-pyrrolo[1,2-b]pyrazol-2-yl)-N-methylbenzene-1-sulfonamide] | 10.4

Same assay, conditions: TEAD Reporter-MCF7 cells, 24 hours incubation with compound, luciferase readout

EC50 [nM] | Structure (SMILES)
55.9 | CNS(=O)(=O)c1ccc(Oc2ccc(F)cc2F)c(-c2cn3c(n2)CCC3)c1 [4-21, 4-(2,4-difluorophenoxy)-3-(6,7-dihydro-5H-pyrrolo[1,2-a]imidazol-2-yl)-N-methylbenzene-1-sulfonamide]
6.4 | CNS(=O)(=O)c1ccc(Oc2ccc(C(F)(F)F)cc2)c(-c2cn3c(n2)CC(C)C3)c1 (single isomer, unassigned) [1-42, (S)- or (R)-N-methyl-3-(6-methyl-6,7-dihydro-5H-pyrrolo[1,2-a]imidazol-2-yl)-4-[4-(trifluoromethyl)phenoxy]benzene-1-sulfonamide]
